{"source": "patent US20240269083A1", "about": "“PROLONGED-RELEASE PHARMACEUTICAL COMPOSITION FOR ORAL ADMINISTRATION OF SULTIAME” (ADVICENNE, priority 2021, published 2024)", "origin": "cited, not measured here", "system": "erythrocytes", "settings": "single doses of Ospolot, fasting, healthy subjects", "data": [{"smiles": "NS(=O)(=O)c1ccc(N2CCCCS2(=O)=O)cc1", "note": "[sultiame, Sultiame]", "values": [{"measurement": "affinity for erythrocytes", "value": "very strong affinity for erythrocytes"}]}]}
